The text below walks through data of the supplement of paper PMC10307832.

Assay in all cases: relative viability (nuclei count vs DMSO), 5 days (fraction); higher = more cells survive
Compound in the experiment “NPK76-II-72-1 + OSI-027”: CC1CC(=O)N(C2=CN=C(N=C2N1C3CCCC3)NC4=C(C=C(C=C4)C(=O)NC5CCN(CC5)C)OC)C [NPK76-II-72-1] + COc1cccc2cc(-c3nc([C@H]4CC[C@H](C(=O)O)CC4)n4ncnc(N)c34)[nH]c12 [OSI-027] (partner 0.5 µM)
In a few lines:
(§1)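 Lung cancer cell lines in 1536-well plates were dosed by pin tool the day after seeding, either with one drug alone or with a fixed anchor-drug dose plus five library-drug doses (not always all listed) in √10 steps. After 5 days, cells were fixed and their nuclei stained in one step (final 0.05% Triton X-100, 1% formaldehyde, 1 ug/ml Hoechst), then counted on 4× images. Relative viability is the nuclei count in treated wells divided by that in vehicle wells. Values are medians of duplicate plates.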

Compound in the experiment “BI-2536 + Luminespib”: CC[C@@H]1C(=O)N(C)c2cnc(Nc3ccc(C(=O)NC4CCN(C)CC4)cc3OC)nc2N1C1CCCC1 [BI-2536] + CCNC(=O)c1noc(-c2cc(C(C)C)c(O)cc2O)c1-c1ccc(CN2CCOCC2)cc1 [Luminespib] (partner 0.01 µM)
Summed up:
as §1

Compound in the experiment “BI-2536 + Lapatinib”: CC[C@@H]1C(=O)N(C)c2cnc(Nc3ccc(C(=O)NC4CCN(C)CC4)cc3OC)nc2N1C1CCCC1 [BI-2536] + CS(=O)(=O)CCNCc1ccc(-c2ccc3ncnc(Nc4ccc(OCc5cccc(F)c5)c(Cl)c4)c3c2)o1 [Lapatinib] (partner 2 µM)
Summed up:
as §1

Compound in the experiment “BI-2536 + AZD7762”: CC[C@@H]1C(=O)N(C)c2cnc(Nc3ccc(C(=O)NC4CCN(C)CC4)cc3OC)nc2N1C1CCCC1 [BI-2536] + NC(=O)Nc1cc(-c2cccc(F)c2)sc1C(=O)N[C@H]1CCCNC1 [AZD7762] (partner 0.2 µM)
In a few lines: as §1

For the cell line NCI-H322M, the relative viability in the experiment with NPK76-II-72-1 + OSI-027 (first compound 0.01 µM) is 0.558; with NPK76-II-72-1 + OSI-027 (first compound 0.03162 µM) it was 0.593; with NPK76-II-72-1 + OSI-027 (first compound 0.1 µM) it was 0.534; with NPK76-II-72-1 + OSI-027 (first compound 0.3162 µM), 0.56; in the experiment with NPK76-II-72-1 + OSI-027 (first compound 1 µM), 0.672; in the experiment with BI-2536 + Luminespib (first compound 0.01 µM), 0.844. Moreover, the relative viability came to 0.509 with BI-2536 + Luminespib (first compound 0.03162 µM); 0.439 with BI-2536 + Luminespib (first compound 0.1 µM); 0.409 with BI-2536 + Luminespib (first compound 0.3162 µM); 0.303 with BI-2536 + Luminespib (first compound 1 µM); 0.545 with BI-2536 + Lapatinib (first compound 0.01 µM); 0.483 with BI-2536 + Lapatinib (first compound 0.03162 µM). In addition, the relative viability with BI-2536 + Lapatinib (first compound 0.1 µM) came to 0.59; with BI-2536 + Lapatinib (first compound 0.3162 µM), 0.673; in the experiment with BI-2536 + Lapatinib (first compound 1 µM), 0.251; in the experiment with BI-2536 + AZD7762 (first compound 0.01 µM), 0.61; with BI-2536 + AZD7762 (first compound 0.03162 µM), 0.53; with BI-2536 + AZD7762 (first compound 0.1 µM), 0.496. Besides, the results for the relative viability in the experiment with BI-2536 + AZD7762 (first compound 0.3162 µM) and with BI-2536 + AZD7762 (first compound 1 µM) were 0.394 and 0.406, respectively.

As for ABC-1, the relative viability in the experiment with NPK76-II-72-1 + OSI-027 (first compound 0.01 µM) was 0.422; with NPK76-II-72-1 + OSI-027 (first compound 0.03162 µM) it was 0.418; in the experiment with NPK76-II-72-1 + OSI-027 (first compound 0.1 µM), 0.343; with NPK76-II-72-1 + OSI-027 (first compound 0.3162 µM), 0.458; with NPK76-II-72-1 + OSI-027 (first compound 1 µM), 0.492; in the experiment with BI-2536 + Luminespib (first compound 0.01 µM) it was 0.54. Further, the relative viability with BI-2536 + Luminespib (first compound 0.03162 µM) worked out at 0.293; in the experiment with BI-2536 + Luminespib (first compound 0.3162 µM) it was 0.28; with BI-2536 + Luminespib (first compound 1 µM), 0.39; in the experiment with BI-2536 + Lapatinib (first compound 0.01 µM), 1.23; with BI-2536 + Lapatinib (first compound 0.03162 µM) it was 1.39; with BI-2536 + Lapatinib (first compound 0.1 µM), 1.04. The relative viability with BI-2536 + Lapatinib (first compound 0.3162 µM) was determined as 0.643; with BI-2536 + Lapatinib (first compound 1 µM) it was 0.529; with BI-2536 + AZD7762 (first compound 0.01 µM), 0.576; with BI-2536 + AZD7762 (first compound 0.03162 µM), 0.871; with BI-2536 + AZD7762 (first compound 0.3162 µM), 0.922; with BI-2536 + AZD7762 (first compound 1 µM), 0.301.

As to NCI-H1666, the relative viability in the experiment with NPK76-II-72-1 + OSI-027 (first compound 0.01 µM) came to 0.802; with NPK76-II-72-1 + OSI-027 (first compound 0.03162 µM) it was 0.871; with NPK76-II-72-1 + OSI-027 (first compound 0.1 µM), 0.82; in the experiment with NPK76-II-72-1 + OSI-027 (first compound 0.3162 µM) it was 0.777; with NPK76-II-72-1 + OSI-027 (first compound 1 µM) it was 0.975; in the experiment with BI-2536 + Luminespib (first compound 0.01 µM), 1.01. The relative viability with BI-2536 + Luminespib (first compound 0.03162 µM) is 0.933; in the experiment with BI-2536 + Luminespib (first compound 0.1 µM), 0.866; in the experiment with BI-2536 + Luminespib (first compound 0.3162 µM), 0.382; in the experiment with BI-2536 + Luminespib (first compound 1 µM), 0.34; with BI-2536 + Lapatinib (first compound 0.01 µM), 0.779; with BI-2536 + Lapatinib (first compound 0.03162 µM), 0.582. Also, the relative viability with BI-2536 + Lapatinib (first compound 0.1 µM) was 0.29; with BI-2536 + Lapatinib (first compound 0.3162 µM), 0.231; with BI-2536 + Lapatinib (first compound 1 µM) it was 0.262; in the experiment with BI-2536 + AZD7762 (first compound 0.01 µM) it was 0.803; with BI-2536 + AZD7762 (first compound 0.03162 µM), 0.851; with BI-2536 + AZD7762 (first compound 0.1 µM) it was 0.827. For the same cell line, the values for the relative viability with BI-2536 + AZD7762 (first compound 0.3162 µM) and in the experiment with BI-2536 + AZD7762 (first compound 1 µM) were 0.411 and 0.368, respectively.

With NCI-H1993, the relative viability is 0.532 with NPK76-II-72-1 + OSI-027 (first compound 0.01 µM); 0.534 with NPK76-II-72-1 + OSI-027 (first compound 0.03162 µM); 0.51 in the experiment with NPK76-II-72-1 + OSI-027 (first compound 0.1 µM); 0.528 in the experiment with NPK76-II-72-1 + OSI-027 (first compound 0.3162 µM); 0.549 with NPK76-II-72-1 + OSI-027 (first compound 1 µM); 0.856 in the experiment with BI-2536 + Luminespib (first compound 0.01 µM). Besides, the relative viability in the experiment with BI-2536 + Luminespib (first compound 0.03162 µM) is 0.747; with BI-2536 + Luminespib (first compound 0.1 µM), 0.521; with BI-2536 + Luminespib (first compound 0.3162 µM) it was 0.602; in the experiment with BI-2536 + Luminespib (first compound 1 µM) it was 0.515; in the experiment with BI-2536 + Lapatinib (first compound 0.01 µM), 0.81; with BI-2536 + Lapatinib (first compound 0.03162 µM) it was 0.828. Besides, the relative viability with BI-2536 + Lapatinib (first compound 0.1 µM) amounted to 0.533; with BI-2536 + Lapatinib (first compound 0.3162 µM), 0.566; with BI-2536 + Lapatinib (first compound 1 µM) it was 0.555; with BI-2536 + AZD7762 (first compound 0.01 µM), 0.734; with BI-2536 + AZD7762 (first compound 0.03162 µM), 0.668; in the experiment with BI-2536 + AZD7762 (first compound 0.1 µM) it was 0.407. The relative viability worked out at 0.53 with BI-2536 + AZD7762 (first compound 0.3162 µM) and 0.348 in the experiment with BI-2536 + AZD7762 (first compound 1 µM).

For NCI-H1975, the relative viability in the experiment with NPK76-II-72-1 + OSI-027 (first compound 0.01 µM) came out at 0.698; with NPK76-II-72-1 + OSI-027 (first compound 0.03162 µM) it was 0.712; in the experiment with NPK76-II-72-1 + OSI-027 (first compound 0.1 µM) it was 0.753; with NPK76-II-72-1 + OSI-027 (first compound 0.3162 µM), 0.72; in the experiment with NPK76-II-72-1 + OSI-027 (first compound 1 µM), 0.753; in the experiment with BI-2536 + Luminespib (first compound 0.01 µM), 0.253. Also, the relative viability in the experiment with BI-2536 + Luminespib (first compound 0.03162 µM) is 0.209; with BI-2536 + Luminespib (first compound 0.1 µM), 0.231; with BI-2536 + Luminespib (first compound 0.3162 µM), 0.158; in the experiment with BI-2536 + Luminespib (first compound 1 µM), 0.149; with BI-2536 + Lapatinib (first compound 0.01 µM), 0.853; with BI-2536 + Lapatinib (first compound 0.03162 µM) it was 0.622. Further, the relative viability with BI-2536 + Lapatinib (first compound 0.1 µM) came out at 0.421; in the experiment with BI-2536 + Lapatinib (first compound 0.3162 µM) it was 0.153; with BI-2536 + Lapatinib (first compound 1 µM), 0.175; in the experiment with BI-2536 + AZD7762 (first compound 0.01 µM) it was 0.726; in the experiment with BI-2536 + AZD7762 (first compound 0.03162 µM) it was 0.568; with BI-2536 + AZD7762 (first compound 0.1 µM) it was 0.639. Also, the relative viability with BI-2536 + AZD7762 (first compound 0.3162 µM) was determined as 0.236; in the experiment with BI-2536 + AZD7762 (first compound 1 µM) it was 0.177.

As to HCC-44, the relative viability in the experiment with NPK76-II-72-1 + OSI-027 (first compound 0.01 µM) is 0.617; with NPK76-II-72-1 + OSI-027 (first compound 0.03162 µM), 0.702; with NPK76-II-72-1 + OSI-027 (first compound 0.1 µM) it was 0.337; with NPK76-II-72-1 + OSI-027 (first compound 0.3162 µM), 0.599; with NPK76-II-72-1 + OSI-027 (first compound 1 µM), 0.65; with BI-2536 + Luminespib (first compound 0.01 µM), 1.03. The relative viability with BI-2536 + Luminespib (first compound 0.03162 µM) came out at 0.261; in the experiment with BI-2536 + Luminespib (first compound 0.1 µM), 0.204; with BI-2536 + Luminespib (first compound 0.3162 µM) it was 0.104; with BI-2536 + Luminespib (first compound 1 µM), 0.12; with BI-2536 + Lapatinib (first compound 0.01 µM) it was 1.07; with BI-2536 + Lapatinib (first compound 0.03162 µM), 0.988. In addition, the relative viability with BI-2536 + Lapatinib (first compound 0.1 µM) was determined as 0.287; with BI-2536 + Lapatinib (first compound 0.3162 µM), 0.0973; with BI-2536 + Lapatinib (first compound 1 µM) it was 0.0863; with BI-2536 + AZD7762 (first compound 0.01 µM) it was 1.08; in the experiment with BI-2536 + AZD7762 (first compound 0.03162 µM), 1.06; with BI-2536 + AZD7762 (first compound 0.1 µM), 0.978. Moreover, the values for the relative viability in the experiment with BI-2536 + AZD7762 (first compound 0.3162 µM) and in the experiment with BI-2536 + AZD7762 (first compound 1 µM) were 0.655 and 0.361, respectively.
